Consider four compounds from ChEMBL document CHEMBL1152775, “Effect of 3,4-ethylenedioxy-extension of thiophene core on the DNA/RNA binding properties and biological activity of bisbenzimidazole amidines” (Bioorg Med Chem, 2009).

The subject of assay [1] is Caco-2. Description: Antiproliferative activity against human Caco-2 cells at 0.1 to 100 uM after 72 hrs by MTT assay. It is filed as functional, cell-based. For orientation: Tetrazolium dyes change colour on reduction, which living cells bring about.
In assay [2] the test system is Trypanosoma cruzi. Nature of the assay: Antitrypanosomal activity against Trypanosoma cruzi clone 14 epimastigotes on day 5. Type of assay: functional, organism-based. The conditions noted are these: 120 h.
For assay [3], the system named is HeLa. Description: Cell cycle distribution in human HeLa cells assessed as accumulation at G0/G1 phase at 1 uM after 72 hrs by propidium iodide-based flow cytometry. It is filed as functional.
For assay [4], the system named is HEp-2. Nature of the assay: Antiproliferative activity against human Hep2 cells at 1 uM after 72 hrs by MTT assay relative to control. The conditions noted are these: HEp-2, 72 h. Type of assay: functional.
Assay [5] relates to Calf thymus DNA. Nature of the assay: Binding affinity to calf thymus double stranded DNA by UV visible spectroscopy. It is filed as nucleic-acid assay. The following applies: Bos taurus.
The test system of assay [6] is HeLa. Nature of the assay: Cell cycle distribution in human HeLa cells assessed as accumulation at S phase at 1 uM after 48 hrs by propidium iodide-based flow cytometry. Type of assay: functional. (In flow cytometry, cells or beads pass a laser one at a time.)
Assay [7] deals with HeLa. Nature of the assay: Antiproliferative activity against human HeLa cells at 0.1 to 100 uM after 72 hrs by MTT assay. It is filed as functional, cell-based.
A short description of assay [8]: Binding affinity to poly A-poly U double stranded RNA by UV visible spectroscopy.
Assay [9] relates to HT-29. Nature of the assay: Antiproliferative activity against human HT-29 cells at 0.1 to 100 uM after 72 hrs by MTT assay. It is filed as functional, cell-based.
In assay [10] the test system is MCF7. Nature of the assay: Antiproliferative activity against human MCF7 cells at 0.1 to 100 uM after 72 hrs by MTT assay. Type of assay: functional, cell-based.
For assay [11], the system named is HeLa. Description: Cell cycle distribution in human HeLa cells assessed as accumulation at G2/M phase at 1 uM after 48 hrs by propidium iodide-based flow cytometry. It is filed as functional.
The subject of assay [12] is Trypanosoma cruzi. Nature of the assay: Antitrypanosomal activity against Trypanosoma cruzi clone 14 epimastigotes after 8 days. Type of assay: functional, organism-based. The following applies: 192 h.
Assay [13] in a line: Binding affinity to poly A-poly U double stranded RNA by CD spectroscopy.
Assay [14] concerns Calf thymus DNA. Description: Binding affinity to calf thymus double stranded DNA assessed as change in melting temperature at drug to DNA ratio of 0.2 by thermal denaturation study. Type of assay: nucleic-acid assay. The conditions noted are these: Bos taurus.
The subject of assay [15] is MIA PaCa-2. Description: Antiproliferative activity against human MIAPaCa2 cells at 0.1 to 100 uM after 72 hrs by MTT assay. Type of assay: functional, cell-based.
Assay [16] deals with AGS. Description: Antiproliferative activity against human AGS cells at 0.1 to 100 uM after 72 hrs by MTT assay. It is filed as functional, cell-based.
The test system of assay [17] is Calf thymus DNA. Description: Binding affinity to calf thymus double stranded DNA minor groove at drug to DNA ratio of 0 to 0.2 by CD spectroscopy. Type of assay: nucleic-acid assay. The following applies: Bos taurus.
The subject of assay [18] is HeLa. Description: Cell cycle distribution in human HeLa cells assessed as accumulation at G0/G1 phase at 1 uM after 48 hrs by propidium iodide-based flow cytometry. Type of assay: functional.
Assay [19] relates to Calf thymus DNA. Description: Binding affinity to calf thymus double stranded DNA assessed as change in melting temperature at drug to DNA ratio of 0.05 by thermal denaturation study. The conditions noted are these: Bos taurus. It is filed as nucleic-acid assay.
The test system of assay [20] is HeLa. Nature of the assay: Cell cycle distribution in human HeLa cells assessed as accumulation at G2/M phase at 1 uM after 24 hrs by propidium iodide-based flow cytometry. It is filed as functional.
Assay [21] relates to HEp-2. Description: Antiproliferative activity against human Hep2 cells at 0.1 to 100 uM after 72 hrs by MTT assay. Type of assay: functional, cell-based.
Assay [22] concerns Nucleic Acid. Description: Binding affinity to poly A-poly U double stranded RNA assessed as change in melting temperature at […] of 0.1 by thermal denaturation study. Type of assay: nucleic-acid assay.
The species named for assay [23] is Bos taurus. Nature of the assay: Ratio of IC50 of ethidium bromide to IC50 of drug for calf thymus DNA by ethidium bromide displacement assay.
For assay [24], the system named is HeLa. Nature of the assay: Cell cycle distribution in human HeLa cells assessed as accumulation at S phase at 1 uM after 72 hrs by propidium iodide-based flow cytometry. Type of assay: functional.
The subject of assay [25] is Calf thymus DNA. Nature of the assay: Binding affinity to calf thymus double stranded DNA assessed as change in melting temperature at drug to DNA ratio of 0.1 by thermal denaturation study. The following applies: Bos taurus. It is filed as nucleic-acid assay.
The test system of assay [26] is HeLa. Description: Cell cycle distribution in human HeLa cells assessed as accumulation at G2/M phase at 1 uM after 72 hrs by propidium iodide-based flow cytometry. Type of assay: functional.
Assay [27] deals with NCI-H358. Description: Antiproliferative activity against human NCI-H358 cells at 0.1 to 100 uM after 72 hrs by MTT assay. Type of assay: functional, cell-based.
Assay [28] deals with HeLa. Description: Antiproliferative activity against human HeLa cells at 1 uM after 72 hrs by MTT assay relative to control. It is filed as functional.
Assay [29] deals with Nucleic Acid. Description: Binding affinity to poly A-poly U double stranded RNA assessed as change in melting temperature at […] of 0.2 by thermal denaturation study. It is filed as nucleic-acid assay.
Assay [30] concerns MCF7. Description: Antiproliferative activity against human MCF7 cells at 0.1 uM after 72 hrs by MTT assay relative to control. Type of assay: functional. The following applies: MCF7, 72 h.
In assay [31] the test system is Nucleic Acid. Description: Binding affinity to poly A-poly U double stranded RNA assessed as change in melting temperature at […] of 0.3 by thermal denaturation study. It is filed as nucleic-acid assay.
Assay [32] deals with Calf thymus DNA. Nature of the assay: Binding affinity to calf thymus double stranded DNA assessed as change in melting temperature at drug to DNA ratio of 0.3 by thermal denaturation study. It is filed as nucleic-acid assay. The following applies: Bos taurus.
Assay [33] concerns HeLa. Nature of the assay: Cell cycle distribution in human HeLa cells assessed as accumulation at G0/G1 phase at 10 uM after 48 hrs by propidium iodide-based flow cytometry. It is filed as functional.
Assay [34] has as its system HeLa. Nature of the assay: Cell cycle distribution in human HeLa cells assessed as accumulation at G2/M phase at 10 uM after 24 hrs by propidium iodide-based flow cytometry. Type of assay: functional.
Assay [35] deals with HeLa. Nature of the assay: Cell cycle distribution in human HeLa cells assessed as accumulation at G0/G1 phase at 10 uM after 72 hrs by propidium iodide-based flow cytometry. Type of assay: functional.
Assay [36] concerns HeLa. Description: Cell cycle distribution in human HeLa cells assessed as accumulation at G2/M phase at 10 uM after 48 hrs by propidium iodide-based flow cytometry. It is filed as functional.
In assay [37] the test system is HeLa. Description: Cell cycle distribution in human HeLa cells assessed as accumulation at S phase at 10 uM after 72 hrs by propidium iodide-based flow cytometry. Type of assay: functional.
For assay [38], the system named is HeLa. Description: Cell cycle distribution in human HeLa cells assessed as accumulation at S phase at 10 uM after 48 hrs by propidium iodide-based flow cytometry. Type of assay: functional.
In assay [39] the test system is HeLa. Description: Cell cycle distribution in human HeLa cells assessed as accumulation at G2/M phase at 10 uM after 72 hrs by propidium iodide-based flow cytometry. It is filed as functional.

pIC50: −log10 of the molar value. Active and inactive are the calls of the source. No cut-off for these calls is given here.

The term pIC50 denotes the negative decadic logarithm of the IC50, by convention in mol/L. As a reminder, the inhibition is the relative decrease from the control value, in per cent. Low readings indicate little suppression, high ones strong suppression. For orientation: ΔTm means the change in melting temperature against a reference sample. Regarding `CC(C)NC(=N)c1ccc2nc(-c3sc(-c4nc5ccc(C(=N)NC(C)C)cc5[nH]4)c4c3OCCO4)[nH]c2c1.Cl.Cl`, the outcome in assay [1], in [5], in [7], in [8], in assay [9] and in [10] was Active. Also, the result in assay [13], in assay [15], in assay [16], in assay [17], in assay [20] and in assay [21] was Active. For the same compound, in assay [27], the outcome was Active. Also, the pIC50 in assay [2] is 5.37; in [12], 5.62. In addition, the Activity in assay [3] amounted to 30.7%; in assay [6], 22.4%; in [11] it was 35%; in assay [18], 46.9%; in assay [24] it was 49.8%; in assay [26], 15.2%. The inhibition at 1 µM in assay [4] is 80%; in [28], 40%. For the same compound, the ΔTm in assay [14] was over 15.4 °C; in [19], 11.7 °C; in assay [22], 0.9 °C; in assay [25], over 15.4 °C; in assay [29], 0.8 °C. In addition, in [23], the Ratio IC50 turned out to be 0.38. In addition, in assay [30], the inhibition at 0.1 µM worked out at 40%.
Consider `c1cc2nc(-c3sc(-c4nc5ccc(C6=NCCN6)cc5[nH]4)c4c3OCCO4)[nH]c2cc1C1=NCCN1`, for which the outcome in assay [5], in [8], in assay [10], in [13] and in assay [17] was Active. Also, the ΔTm in assay [14] was 11.4 °C; in assay [19], 12.2 °C; in [22], 0.4 °C; in [31], -0.2 °C; in [25], 11.9 °C; in [32], 12.3 °C. Also, the thermal shift (ΔTm) in assay [29] was determined as 0.3 °C. Further, the Ratio IC50 in [23] was 0.38.
For the compound `N=C(N)c1ccc2nc(-c3sc(-c4nc5ccc(C(=N)N)cc5[nH]4)c4c3OCCO4)[nH]c2c1`, the result in [5], in [8], in assay [10], in [13] and in assay [17] was Active. In addition, the ΔTm was 13.9 °C in assay [14]; 12.7 °C in assay [19]; -0.9 °C in assay [31]; 14.4 °C in assay [25]; 12.9 °C in [32]; -0.3 °C in assay [29]. For the same compound, the Ratio IC50 in assay [23] stood at 0.48.
On to `CN1CCN(c2ccc3[nH]c(-c4ccc5[nH]c(-c6ccc(O)cc6)nc5c4)nc3c2)CC1` [HOECHST 33258], for which the Activity in [33] was found to be 33.6%; in assay [35], 43.1%; in [36] it was 23.9%; in assay [37], 46.3%; in assay [38], 23.4%; in assay [39], 29.9%. For the same compound, the result in [10] was Active. In addition, the result in [34] was inactive.
